From patent US7842685B2, “S1P1 receptor agonists and use thereof” (Amgen Inc., priority 2008, dated 2010)
Structures can show the parent of a compound that is named as a salt.

Biological target: T1, hS1P1 receptor (Homo sapiens, UniProt P21453)
T1 construct: host or cells: U2OS
Assay: hS1P1 receptor internalization assay (cell imaging-based, hS1P1-eGFP U2OS cells)
Conditions: U2OS cell line expressing hS1P1-eGFP, compounds incubated at 37° C. for one hour; for Emax: 1 h, efficacy (Max), read-out: hS1P1 Receptor Internalization (biolimaging) Max (%); for EC50: GFP-containing endosomes per cell (ArrayScan), read-out: hS1P1 Receptor Internalization (bioimaging) EC50 IP
Procedure: The activity of compounds of the invention was determined by a cell imaging-based assay measuring the degree of hS1P1 receptor internalization and a Ca^2+ mobilization assay measuring the level of S1P receptor activation. The receptor internalization assay was employed to determine the potency and efficacy of compounds on hS1P1 receptor, while Ca^2+ mobilization assay was used to determine selectivity among different S1P receptors and activity on S1P receptors from species such as rat, dog, and cyno. The hS1P1 receptor internalization assay was performed using a U2OS cell line expressing hS1P1-eGFP chimeric protein (Thermo Scientific, Soeborg, Denmark). Upon compound treatment, the hS1P1 receptor was internalized in cytoplasma and formed GFP-containing-endosomes. This event was detected by an automated microscope, ArrayScan (Thermo Scientific Cellomics, Pittsburg), and the degree of receptor internalization is quantitated by counting green fluorescent GFP-containing endosomes per cell. In this assay, hS1P1-eGFP expressing U2OS cells were starved in serum free media for two hours prior to compound treatment. Then compounds were incubated with the starved cells at 37° C. for one hour. Subsequently, compound-treated cells were fixed using 4% formaldehyde, and the nuclei were stained using Hoechst. Then the cells were imaged in ArrayScan. The potency and efficacy of the compounds were determined by plotting the number of green fluorescent GFP-containing endosomes per cell against corresponding compound concentration.

T1 sequence (P21453 whole entry): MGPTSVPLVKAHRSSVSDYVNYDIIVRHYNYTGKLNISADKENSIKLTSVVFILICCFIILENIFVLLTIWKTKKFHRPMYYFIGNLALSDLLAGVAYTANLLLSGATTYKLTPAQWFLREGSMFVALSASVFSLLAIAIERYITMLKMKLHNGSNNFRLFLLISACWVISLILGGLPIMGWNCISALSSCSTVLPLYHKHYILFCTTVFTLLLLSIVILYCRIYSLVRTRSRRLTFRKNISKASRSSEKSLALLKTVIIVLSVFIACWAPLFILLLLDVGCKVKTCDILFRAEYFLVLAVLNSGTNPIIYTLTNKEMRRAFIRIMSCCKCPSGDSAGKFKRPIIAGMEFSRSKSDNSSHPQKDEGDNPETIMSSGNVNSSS

Compound	Emax	EC50
NC(CO)(CCc1ccc(-c2nc3ccc(C4(c5ccccc5)CC4)nc3s2)c(F)c1)COP(=O)(O)O (racemic) [Example 43, (rac)-2-amino-4-(3-fluoro-4-(5-(1-phenylcyclopropyl)thiazolo[5,4-b]pyridine-2-yl)phenyl)-2-(hydroxymethyl)butyl dihydrogen phosphate]	122%	0.3 nM
O=C(O)C1CN(Cc2ccc(-c3nc4ccc(C5(c6ccccc6)CC5)nc4s3)c(F)c2)C1 [Example 1, 1-((3-fluoro-4-(5-(1-phenylcyclopropyl)thiazolo[5,4-b]pyridin-2-yl)-phenyl)methyl)azetidine-3-carboxylic acid]	98%	2.5 nM
O=C(O)C1(F)CN(Cc2ccc(-c3nc4ccc(C5(c6ccccc6)CC5)nc4s3)c(F)c2)C1 [Example 4, 3-fluoro-1-((3-fluoro-4-(5-(1-phenylcyclopropyl)thiazolo[5,4-b]pyridine-2-yl)phenyl)methyl)azetidine-3-carboxylic acid hydrochloride]	121%	1.2 nM
O=C(O)C1CN(Cc2ccc(-c3nc4ccc(C5(c6ccccc6)CC=CC5)nc4s3)c(F)c2)C1 [Example 5, 1-((3-fluoro-4-(5-(1-phenylcyclopent-3-enyl)thiazolo[5,4-b]pyridine-2-yl)phenyl)methyl)azetidine-3-carboxylic acid]	90%	130 nM
O=C(O)C1CN(Cc2ccc(-c3nc4ccc(C5(c6ccccc6)CCCCC5)nc4s3)c(F)c2)C1 [Example 7, 1-((3-fluoro-4-(5-(1-phenylcyclohexyl)thiazolo[5,4-b]pyridine-2-yl)-phenyl)methyl)azetidine-3-carboxylic acid]	108%	32.6 nM
O=C(O)C1CN(Cc2ccc(-c3nc4ccc(C5(c6ccccc6)CCO5)nc4s3)c(F)c2)C1 (centres unmarked) [Example 9, 1-((3-fluoro-4-(5-(2-phenyloxetan-2-yl)thiazolo[5,4-b]pyridine-2-yl)-phenyl)methyl)azetidine-3-carboxylic acid]	144%	28.6 nM
O=C(O)C1CN(Cc2ccc(-c3nc4ccc(C5(c6ccccc6)CC5)cc4s3)c(F)c2)C1 [Example 10, 1-((3-fluoro-4-(6-(1-phenylcyclopropyl)benzo[d]thiazol-2-yl)phenyl)-methyl)azetidine-3-carboxylic acid hydrochloride]	97%	42 nM
O=C(O)CCNCc1ccc(-c2nc3ccc(C4(c5ccccc5)CC4)nc3s2)c(F)c1 [Example 12, 3-((3-fluoro-4-(5-(1-phenylcyclopropyl)thiazolo[5,4-b]pyridine-2-yl)-phenyl)methylamino)propanoic acid hydrochloride]	101%	2 nM
O=C(O)CCNC(=O)c1ccc(-c2nc3ccc(C4(c5ccccc5)CC4)nc3s2)c(F)c1 [Example 14, 3-(3-fluoro-4-(5-(1-phenylcyclopropyl)thiazolo[5,4-b]pyridine-2-yl)-benzamido)propanoic acid]	66%	20.6 nM
Cc1cc(-c2nc3ccc(C4(c5ccccc5)CC4)nc3s2)cc(C)c1CN1CC(C(=O)O)C1 [Example 17, 1-((2,6-dimethyl-4-(5-(1-phenylcyclopropyl)thiazolo[5,4-b]-pyridin-2-yl)phenyl)methyl)azetidine-3-carboxylic acid]	148%	21 nM
Cc1cc(CN2CC(C(=O)O)C2)ccc1-c1nc2ccc(C3(c4ccccc4)CC3)nc2s1 [Example 19, 1-((3-methyl-4-(5-(1-phenylcyclopropyl)thiazolo[5,4-b]pyridine-2-yl)phenyl)methyl)azetidine-3-carboxylic acid]	121%	1.4 nM
NC1(c2ccc(-c3nc4ccc(C5(c6ccccc6)CC5)nc4s3)c(F)c2)CC1 [Example 20, 1-(3-fluoro-4-(5-(1-phenylcyclopropyl)thiazolo[5,4-b]pyridine-2-yl)phenyl)cyclopropanamine]	160%	31.2 nM
CC(C)(N)c1ccc(-c2nc3ccc(C4(c5ccccc5)CC4)nc3s2)c(F)c1 [Example 22, 2-(3-fluoro-4-(5-(1-phenylcyclopropyl)thiazolo[5,4-b]pyridine-2-yl)phenyl)-propan-2-amine]	157%	192 nM
O=C(O)CCc1ccc(-c2nc3ccc(C4(c5ccccc5)CC4)nc3s2)c(F)c1 [Example 27, 3-(3-fluoro-4-(5-(1-phenylcyclopropyl)thiazolo[5,4-b]pyridine-2-yl)-phenyl)propanoic acid]	81%	5880 nM
OCC(CO)Cc1ccc(-c2nc3ccc(C4(c5ccccc5)CC4)nc3s2)c(F)c1 [Example 29, 2-(3-fluoro-4-(5-(1-phenylcyclopropyl)thiazolo[5,4-b]pyridine-2-yl)benzyl)propane-1,3-diol]	91%	334 nM
O=C(O)C1(C(=O)O)CC(Cc2ccc(-c3nc4ccc(C5(c6ccccc6)CC5)nc4s3)c(F)c2)C1 [Example 30, 3-(3-fluoro-4-(5-(1-phenylcyclopropyl)thiazolo[5,4-b]pyridine-2-yl)benzyl)cyclobutane-1,1-dicarboxylic acid]	79%	2910 nM
OC1CN(Cc2ccc(-c3nc4ccc(C5(c6ccccc6)CC5)nc4s3)c(F)c2)C1 [Example 35, 1-(3-fluoro-4-(5-(1-phenylcyclopropyl)thiazolo[5,4-b]pyridin-2-yl)benzyl)-azetidin-3-ol]	90%	18.7 nM
O=C(O)C1CN(Cc2ccc(-c3nc4ccc(C5(c6ccccc6F)CC5)nc4s3)c(F)c2)C1 [Example 38, 1-(3-fluoro-4-(5-(1-(2-fluorophenyl)cyclopropyl)thiazolo[5,4-b]pyridine-2-yl)-benzyl)azetidine-3-carboxylic acid]	111%	3.7 nM
O=C(O)C1CN(Cc2ccc(-c3nc4ccc(C5(c6ccc(O)cc6)CC5)nc4s3)c(F)c2)C1 [Example 39, 1-(3-fluoro-4-(5-(1-(4-hydroxyphenyl)cyclopropyl)thiazolo[5,4-b]pyridine-2-yl)benzyl)azetidine-3-carboxylic acid]	83%	21.2 nM
NC(CO)(CO)CCc1ccc(-c2nc3ccc(C4(c5ccccc5)CC4)nc3s2)c(F)c1 [Example 42, 2-amino-2-(3-fluoro-4-(5-(1-phenylcyclopropyl)thiazolo[5,4-b]pyridin-2-yl)phenethyl)propane-1,3-diol hydrochloride]	119%	10.2 nM
O=C(O)C1CN(Cc2ccc(-c3nc4nc(C5(c6ccccc6)CC5)ccc4s3)c(F)c2)C1 [Example 44, 1-(3-fluoro-4-(5-(1-phenylcyclopropyl)thiazolo[4,5-b]pyridin-2-yl)-benzyl)azetidine-3-carboxylic acid trifluoroacetic acid salt]	113%	59.7 nM
O=C(O)C1CN(Cc2ccc(-c3nc4cnc(C5(c6ccccc6)CC5)cc4s3)c(F)c2)C1 [Example 45, 1-(3-fluoro-4-(6-(1-phenylcyclopropyl)thiazolo[4,5-c]pyridine-2-yl)benzyl)azetidine-3-carboxylic acid trifluoroacetic acid salt]	103%	99.7 nM
Nc1cc(CN2CC(C(=O)O)C2)ccc1-c1nc2ccc(C3(c4ccccc4)CC3)nc2s1 [Example 46, 1-(3-amino-4-(5-(1-phenylcyclopropyl)thiazolo[5,4-b]pyridin-2-yl)benzyl)azetidine-3-carboxylic acid]	99%	4.8 nM
O=C(O)C1CN(Cc2ccc(-c3nc4ccc(C5(C6CCCCC6)CC5)nc4s3)c(F)c2)C1 [Example 47, 1-(4-(5-(1-cyclohexylcyclopropyl)thiazolo[5,4-b]pyridine-2-yl)-3-fluorobenzyl)azetidine-3-carboxylic acid trifluoroacetic acid salt]	117%	5.9 nM
O=C(O)C1CN(Cc2ccc(-c3nc4ccc(C5(C6CCOCC6)CC5)nc4s3)c(F)c2)C1 [Example 52, 1-(3-fluoro-4-(5-(1-(tetrahydro-2H-pyran-4-yl)cyclopropyl)thiazolo[5,4-b]pyridine-2-yl)benzyl)azetidine-3-carboxylic acid trifluoroacetic acid salt]	109%	1190 nM
O=C(O)[C@@H]1C[C@H](c2ccc(-c3nc4ccc(C5(c6ccccc6)CC5)nc4s3)c(F)c2)CN1 [Example 54, (2S,4R)-4-(3-fluoro-4-(5-(1-phenylcyclopropyl)thiazolo[5,4-b]pyridine-2-yl)phenyl)pyrrolidine-2-carboxylic acid trifluoroacetic acid salt]	126%	4.5 nM
O=C(O)C(=O)NCCc1ccc(-c2nc3ccc(C4(c5ccccc5)CC4)nc3s2)c(F)c1 [Example 57, ((2-(3-fluoro-4-(5-(1-phenylcyclopropyl)[1,3]thiazolo[5,4-b]pyridin-2-yl)phenyl)ethyl)amino)(oxo)acetic acid]	107%	35.5 nM
Fc1cc(CCNCc2ccccc2)ccc1-c1nc2ccc(C3(c4ccccc4)CC3)nc2s1 [Example 60, N-benzyl-2-(3-fluoro-4-(5-(1-phenylcyclopropyl)[1,3]thiazolo[5,4-b]pyridin-2-yl)phenyl)ethanamine]	162%	721 nM
